Test results reported in patent US20070191402A1, “Method of searching substrate having antidiabetic activity” (KYOWA HAKKO KOGYO CO., LTD., priority 2002, published 2007).

Columns and labels:
[1] = test system: pancreatic β cell (MIN6 cell); assay: Inhibition of binding of [3H]-labeled Compound 16 to pancreatic β cell; parameters: species or system murine; conditions: test compound 1 μmol/l; 10 nmol/l [3H]-labeled Compound 16; MIN6 cell, 4° C.
Method: MIN6 cell cultured to almost confluence in a 24-well plate for cell culture (manufactured by Corning) was washed twice with KRH buffer (119 mmol/l NaCl, 4.74 mmol/KCl, 2.54 mmol/l calcium chloride (CaCl2), 1.19 mmol/l magnesium sulfate (MgSO4), 1.19 mmol/l potassium dihydrogen phosphate (KH2PO4), 10 mmol/l HEPES, 2 mmol/l glucose, 0.1 w/v % bovine serum albumin (BSA), pH 7.3). Subsequently, the KRH buffer was added at 1 ml per well, for preincubation at 37° C. for 45 minutes. After preincubation, the supernatant was discarded, and 0.15 ml of the KRH buffer, […] at 4° C. for one hour or longer until the reaction reached equilibrium. Subsequently, the cell was washed twice using the KRH buffer. The KRH buffer was added at 2 ml per well, which was then left to stand at room temperature for 20 minutes. The cell was again washed twice by using the KRH buffer. The radioactivity remaining in each well was counted with a liquid scintillation counter to determine the binding amount.
The difference between the binding amount of the [^3H]-labeled Compound 16 (total binding amount) under conditions with no addition of any test compound and the binding amount of the [^3H]-labeled Compound 16 (non-specific binding amount) under conditions in the presence of the Compound 16 at 10 μmol/l was defined as specific binding amount.
According to the method described in Example 5, a substance having anti-diabetic activity was screened for, using the inhibitory activity of the binding between pancreatic β cells and [^3H]-labeled Compound 16. A tested substance was dissolved in dimethylsulfoxide and then added to give a final concentration of 1 μmol/l. The radioactivity with addition of the unlabeled Compound 16 was defined as the non-specific binding amount and the radioactivity without addition of the unlabeled Compound 16 was defined as the total binding amount, and then the individual specific binding amounts were calculated by the method described in Example 6. Using the following formula, the binding inhibition ratio was determined. [formula]

p31 protein = target: T1, p31 protein (Mus musculus, UniProt Q99LB2); assay: Inhibition of binding of p31 protein from MIN6 solubilized membrane fraction to Compound 155-immobilized particle (SDS-PAGE); conditions: 500 μmol/l tested substance, band on SDS-PAGE
T1 construct: endogenous in cells; host or cells: MIN6 (murine pancreatic beta cell line), digitonin-solubilized membrane fraction
T1 sequence (Q99LB2 20-279 limits assumed): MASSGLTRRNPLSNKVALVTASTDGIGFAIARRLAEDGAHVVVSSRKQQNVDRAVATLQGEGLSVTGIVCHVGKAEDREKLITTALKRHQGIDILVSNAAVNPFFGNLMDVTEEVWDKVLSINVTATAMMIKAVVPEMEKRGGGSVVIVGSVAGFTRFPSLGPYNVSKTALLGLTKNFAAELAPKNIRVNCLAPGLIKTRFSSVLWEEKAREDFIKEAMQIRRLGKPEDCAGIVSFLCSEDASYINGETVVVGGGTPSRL
Method: The solubilized membrane fraction of MIN6 as prepared in Example 12 was 10-fold diluted with the buffer B. The compound represented by Compound No. 16 (hereinafter referred to as “Compound 16”) at 500 μmol/l was added to 1 ml of the resulting dilution and gently stirred at 4° C. for 2 hours. As a control, the solubilized membrane fraction of MIN6 without addition of the Compound 16 was 10-fold diluted with buffer C [20 mmol/l HEPES, pH 7.4, 2 mmol/l EDTA, 150 mmol/l NaCl, 1% digitonin, 1 mmol/l PMSF, 1 μg/ml aprotinin], and 1 ml of the resulting dilution was gently stirred at 4° C. for 2 hours. Then, a particle immobilizing a compound represented by Compound No. 155 (hereinafter referred to as “Compound 155-immobilized particle”) as prepared in Example 8 was added to the solubilized membrane fraction solution with addition of the Compound 16 and the solubilized membrane fraction solution without addition of any tested substance and gently stirred at 4° C. for 30 minutes. Subsequently, the resulting solutions were centrifuged (12,000 rpm, one minute, 4° C.) to precipitate the particle to thereby remove the supernatants. Then, 750 μl of the buffer C was added and stirred for 3 seconds, followed by centrifugation (12,000 rpm, one minute, 4° C.), to precipitate the particle to remove the supernatant. Then, 750 μl of buffer D [20 mmol/l HEPES, pH 7.4, 2 mmol/l EDTA] was added and stirred for 3 seconds, followed by centrifugation (12,000 rpm, one minute, 4° C.), to precipitate the particle to remove the supernatant. Subsequently, 30 μl of an SDS-polyacrylamide gel electrophoresis sample buffer containing β-mercaptoethanol was added to solubilize the protein binding to Compound 155-immobilized particle, followed by SDS-polyacrylamide gel electrophoresis. Through the purification from the cell extract solution by adding Compound 16 via Compound 155-immobilized particle, p31 protein in which its specific binding to Compound 155-immobilized particle was inhibited by the compound represented by Compound No. 16 was found. […]

- inhibition of the binding of the p31 protein to the Compound 155-immobilized particle (p31 protein): inhibits the binding of the p31 protein
- inhibition of the binding of the p31 protein to the Compound 155-immobilized particle (p31 protein; listed as Compound No. 16): inhibited
SMILES: CCCN1C(=O)N2C[C@@H](Cc3ccccc3)N=C2c2[nH]c(C3CCCC3)nc21 [compound 16]
- Binding inhibitory activity (%) [1]: 100.0%
